Data set [1] can be described thus: Drug uptake in plasma of C57B6 mouse after 24 hrs. Type of data set: ADME. The settings on record: read-out: Drug uptake.
Data set [2] in a line: in vivo. Conditions: C57B6, mouse, iv, 5 mg/kg.
Data set [3] can be described thus: in vivo. Conditions: C57B6, mouse, iv, 5 mg/kg. This is another data set of the same source.
A short description of data set [4]: in vivo. The settings on record: C57B6, mouse.
Data set [5] is described as follows: in vivo. Conditions: C57B6, mouse, po, 50 mg/kg.
Data set [6] can be described thus: in vivo. Conditions: C57B6, mouse, po, 50 mg/kg. The source holds these as a separate data set.

Results on 1 compound are retold here after ChEMBL document CHEMBL1770138, “Synthesis and SAR of pyrimidine-based, non-nucleotide P2Y14 receptor antagonists” (Bioorg Med Chem Lett, 2011).

Take `CCc1cccc(NC(=O)N2CCc3nc(-c4ccc5c(c4)OCO5)nc(-c4ccccc4C)c3C2)c1`: in data set [1], the concentration at 24 h amounted to 400 nM. Further, in data set [2], the clearance came to 48 mL/min/kg. This compound also came in with a Vd in data set [3] of 19 L/kg. The same compound showed a half-life in data set [4] of 11 h. In addition, the bioavailability in data set [5] was 134%. The same compound came in with a Cmax in data set [6] of 2400 nM.

By clearance is commonly meant the rate of elimination divided by the concentration. Low readings indicate a low capacity for elimination, high ones a high capacity for elimination. As usually defined, the Vd is the apparent volume that relates the amount in the body to the concentration in plasma or blood. The low end stands for confinement near the circulation, the high end for extensive tissue distribution. One may read the half-life as the time in which the quantity being followed falls by half. Higher therefore signals slow decline. What is called Cmax is the highest concentration seen after dosing.
